The test system of test [1] is MCF-7 cells. As to the kind of experiment: Cytotoxicity, MTT assay. In kind it is cell-based. The following applies: treatment for 1 day, compared to the non-treated group. On the procedure:
MCF-7 cells were seeded at 10,000 cells/well in 96-well cell culture plates. After 1 day, different concentrations of each particle (4 to 500 µg/mL) were treated with a serum-containing medium in each well for 1 day. Thereafter, the culture was performed for 4 hours while replacing the above medium with a serum-free medium containing 10 µl of MTT assay kit, and the supernatant was aspirated. DMSO was added to each well to dissolve formazan, and reacted for 1 hour. The absorbance was measured at a wavelength of 570 nm, and the cell viability was calculated as a relative value to that of the untreated group.
Cell viability was compared by MTT assay after treatment with FabBALL and Becl peptide carrying Becl peptide on MCF-7 cells.
(Tetrazolium dyes change colour on reduction, which living cells bring about.)

For test [2], the system named is MCF-7 cells expressing LC3-GFP. As to the kind of experiment: Number of GFP-LC3 puncta (autophagy induction). The format is cell-based. To be noted: MCF-7 expressing LC3-GFP, treated 6 hours in serum-free medium. How it is done:
Using lipofectamine 2000, LC3-GFP plasmid was transfected into MCF-7 cells. Transfected MCF-7 was selected with 800 µg/mL of G418 for 3 months. […] 100,000 MCF-7 cells expressing LC3-GFP were seeded.
40 µg of dye-labeled particles and 4 µg of bec1 peptide were mixed, and the cells were treated for 6 hours in a serum-free medium. Cells were fixed with 4% PFA, and nuclei were stained with DAPI. Images were obtained with a Delta-vision microscope, and the number of GFP-LC3 puncta was measured in 100 cells for each group.
LC3 protein is a biomarker involved in the elongation process of autophagosome, and its expression level is known to increase with the progress of autophagosome.

For CGGTNVFNATFHIWHSGQFGT [Becl peptide], the cell viability result in test [1] is recorded as “not significantly varied”. Moreover, the GFP puncta entry in test [2] was “very little amount”.

Source of the values: patent EP4005558A1, “ANTICANCER AGENT AND METHOD FOR PREPARATION OF POROUS SILICA PARTICLE” (Lemonex Inc., priority 2019, dated 2022).
